Data published in US6852673B2, “Herbicidal pyridine compounds” (BASF Aktiengesellschaft, priority 1998, dated 2005).

How the values were obtained:
Type in all cases: in vivo
[1] = tested on: Triticum aestivum (TRZAW); experiment: Post-emergence herbicidal evaluation, winter wheat; settings: rated 2 to 4 weeks after treatment
Method: (§1) [table] [table] […] These acetone solutions are diluted with water and the resulting formulations applied at dosage levels equivalent of about 0.03 to 0.4 kg per hectare of test compound per pot. After spraying the plants are placed on greenhouse benches and are cared for in the usual manner, commensurate with conventional greenhouse practices. From 2 to 4 weeks after treatment, the seedling plants are examined and rated according to the rating system provided above. A rating 0 indicates growth as untreated control, a rating 9 indicates death.

[2] = tested on: weeds; experiment: Post-emergence herbicidal evaluation, overall weed control; settings: in barley at crop selective doses
Method: as §1

[3] = tested on: Alopecurus myosuroides (ALOMY); experiment: Post-emergence herbicidal evaluation, black grass; settings: rated 2 to 4 weeks after treatment
Method: as §1

[4] = tested on: Stellaria media (STEME); experiment: Pre-emergence herbicidal evaluation, chickweed
From the text: (§2) The pre-emergence herbicidal activity of the compounds of the present invention is exemplified by the following test in which the seeds of a variety of monocotyledonous and dicotyledonous plants are seperately mixed with potting soil and planted on top of approximately one inch of soil in separate pots. After planting, the pots are sprayed with the selected aqueous acetone solution containing test compound in sufficient quantity to provide the equivalent of about 0.0125 to 0.4 kg per hectare of test compound per pot. The treated pots are then placed on greenhouse benches, watered and cared for in accordance with conventional greenhouse procedures. From 2 to 4 weeks after treatment, the tests are terminated and each pot is examined and rated according to the rating system set forth below.

[5] = tested on: Galium aparine (GALAP); experiment: Pre-emergence herbicidal evaluation, cleaver
From the text: as §2

[6] = tested on: Ipomoea hederacea (IPOHE); experiment: Pre-emergence herbicidal evaluation, morning glory
From the text: as §2

[7] = tested on: Zea mays (ZEAMX); experiment: Pre-emergence herbicidal evaluation, maize
From the text: as §2

[8] = tested on: Solanum nigrum (SOLNI); experiment: Post-emergence herbicidal evaluation, black nightshade; settings: rated 2 to 4 weeks after treatment
Method: as §1

[9] = tested on: Abutilon theophrasti (ABUTH); experiment: Pre-emergence herbicidal evaluation, velvetleaf
From the text: as §2

[10] = tested on: Stellaria media (STEME); experiment: Post-emergence herbicidal evaluation, chickweed; settings: rated 2 to 4 weeks after treatment
Method: as §1

[11] = tested on: Setaria viridis (SETVI); experiment: Pre-emergence herbicidal evaluation, green foxtail
From the text: as §2

[12] = tested on: Matricaria inodora (MATIN); experiment: Pre-emergence herbicidal evaluation, mayweed
From the text: as §2

[13] = tested on: Oryza sativum (ORYSA); experiment: Pre-emergence herbicidal evaluation, rice
From the text: as §2

[14] = tested on: Alopecurus myosuroides (ALOMY); experiment: Pre-emergence herbicidal evaluation, black grass
From the text: as §2

[15] = tested on: Zea mays (ZEAMX); experiment: Post-emergence herbicidal evaluation, maize; settings: rated 2 to 4 weeks after treatment
Method: as §1

[16] = tested on: Ipomoea hederacea (IPOHE); experiment: Post-emergence herbicidal evaluation, morning glory; settings: rated 2 to 4 weeks after treatment
Method: as §1

[17] = tested on: Solanum nigrum (SOLNI); experiment: Pre-emergence herbicidal evaluation, black nightshade
From the text: as §2

Structure (SMILES): Cc1cc(OCC(F)(F)C(F)(F)F)nc(Oc2cc(C(F)(F)F)nn2C)c1 [Example 7]
- TRZAW rating ([1]; dose 0.03 kg/ha): 2 (2 - Slight effect)
- TRZAW rating ([1]; dose 0.1 kg/ha): 2 (2 - Slight effect)
- TRZAW rating ([1]; dose 0.4 kg/ha): 3 (3 - Moderate effect)
- broad-leaved weed control [2]: effective
- ALOMY rating ([3]; dose 0.03 kg/ha): 2 (2 - Slight effect)
- ALOMY rating ([3]; dose 0.1 kg/ha): 4 (4 - Injury)
- ALOMY rating ([3]; dose 0.4 kg/ha): 5 (5 - Definite injury)
- STEME rating ([4]; dose 0.025 kg/ha): 5 (5 - Definite injury)
- STEME rating ([4]; dose 0.1 kg/ha): 7 (7 - Good herbicidal effect)
- STEME rating ([4]; dose 0.4 kg/ha): 8 (8 - Approaching complete kill)
- GALAP rating ([5]; dose 0.013 kg/ha): 0 (0 - No effect)
- GALAP rating ([5]; dose 0.025 kg/ha): 0 (0 - No effect)
- GALAP rating ([5]; dose 0.1 kg/ha): 1 (1 - Trace effect)
- GALAP rating ([5]; dose 0.4 kg/ha): 2 (2 - Slight effect)
- IPOHE rating ([6]; dose 0.025 kg/ha): 1 (1 - Trace effect)
- IPOHE rating ([6]; dose 0.1 kg/ha): 2 (2 - Slight effect)
- IPOHE rating ([6]; dose 0.4 kg/ha): 5 (5 - Definite injury)
- selectivity in maize [7]: good selectivity
- ZEAMX rating ([7]; dose 0.013 kg/ha): 0 (0 - No effect)
- ZEAMX rating ([7]; dose 0.025 kg/ha): 0 (0 - No effect)
- ZEAMX rating ([7]; dose 0.1 kg/ha): 0 (0 - No effect)
- ZEAMX rating ([7]; dose 0.4 kg/ha): 2 (2 - Slight effect)
- SOLNI rating ([8]; dose 0.03 kg/ha): 0 (0 - No effect)
- SOLNI rating ([8]; dose 0.1 kg/ha): 0 (0 - No effect)
- SOLNI rating ([8]; dose 0.4 kg/ha): 0 (0 - No effect)
- ABUTH rating ([9]; dose 0.025 kg/ha): 0 (0 - No effect)
- ABUTH rating ([9]; dose 0.1 kg/ha): 1 (1 - Trace effect)
- ABUTH rating ([9]; dose 0.4 kg/ha): 7 (7 - Good herbicidal effect)
- STEME rating ([10]; dose 0.03 kg/ha): 2 (2 - Slight effect)
- STEME rating ([10]; dose 0.1 kg/ha): 5 (5 - Definite injury)
- STEME rating ([10]; dose 0.4 kg/ha): 5 (5 - Definite injury)
- SETVI rating ([11]; dose 0.013 kg/ha): 2 (2 - Slight effect)
- SETVI rating ([11]; dose 0.025 kg/ha): 2 (2 - Slight effect)
- SETVI rating ([11]; dose 0.1 kg/ha): 5 (5 - Definite injury)
- SETVI rating ([11]; dose 0.4 kg/ha): 8 (8 - Approaching complete kill)
- MATIN rating ([12]; dose 0.013 kg/ha): 0 (0 - No effect)
- MATIN rating ([12]; dose 0.025 kg/ha): 3 (3 - Moderate effect)
- MATIN rating ([12]; dose 0.1 kg/ha): 8 (8 - Approaching complete kill)
- MATIN rating ([12]; dose 0.4 kg/ha): 9 (9 - Complete kill)
- ORYSA rating ([13]; dose 0.013 kg/ha): 0 (0 - No effect)
- ORYSA rating ([13]; dose 0.025 kg/ha): 1 (1 - Trace effect)
- ORYSA rating ([13]; dose 0.1 kg/ha): 1 (1 - Trace effect)
- ORYSA rating ([13]; dose 0.4 kg/ha): 2 (2 - Slight effect)
- ALOMY rating ([14]; dose 0.013 kg/ha): 0 (0 - No effect)
- ALOMY rating ([14]; dose 0.025 kg/ha): 1 (1 - Trace effect)
- ALOMY rating ([14]; dose 0.1 kg/ha): 4 (4 - Injury)
- ALOMY rating ([14]; dose 0.4 kg/ha): 9 (9 - Complete kill)
- ZEAMX rating ([15]; dose 0.03 kg/ha): 2 (2 - Slight effect)
- ZEAMX rating ([15]; dose 0.1 kg/ha): 2 (2 - Slight effect)
- ZEAMX rating ([15]; dose 0.4 kg/ha): 3 (3 - Moderate effect)
- IPOHE rating ([16]; dose 0.03 kg/ha): 3 (3 - Moderate effect)
- IPOHE rating ([16]; dose 0.1 kg/ha): 9 (9 - Complete kill)
- IPOHE rating ([16]; dose 0.4 kg/ha): 9 (9 - Complete kill)
- SOLNI rating ([17]; dose 0.013 kg/ha): 0 (0 - No effect)
- SOLNI rating ([17]; dose 0.025 kg/ha): 1 (1 - Trace effect)
- SOLNI rating ([17]; dose 0.1 kg/ha): 4 (4 - Injury)
- SOLNI rating ([17]; dose 0.4 kg/ha): 9 (9 - Complete kill)
